In US11406664B2, “Ferric maltol compositions for use in the treatment or prevention of cancer and tumours” (Shield TX (UK) Limited, priority 2016, dated 2022):

How the values were obtained:
[1] = test system: HT29 human epithelial colorectal adenocarcinoma cell line; experiment: Proliferation assay by real time live cell imaging (Incucyte), HT29; format: cell-based; details: for effect on cancer cell proliferation, ligand not bound to iron: ligand-only control; for effect on cancer cell proliferation, ligand not bound to iron / effect on cell proliferation: 72 h; for effect on cell proliferation: iron compounds, 5 or 10% FBS, at concentrations predicted in gut lumen with iron supplementation
Method: FIG. 3: Inhibition of cell proliferation in the HT29 human epithelial colorectal adenocarcinoma cell line with the different iron compounds as assessed by real time live cell imaging (Incucyte™). Conditions were as above in the legend to FIG. 2.
(§1) A stock solution of ferric citrate (FeCitrate) 8 mM [Fe] was produced by adding citric acid to ferric chloride on a 1:1 molar ratio. Ferric trimaltol (FTMB) was produced from iron hydroxides and maltol, and the stock solution of circa 8 mM [Fe] was produced by dissolving it in ultrapure water. All stock solutions were filter sterilised (0.2 μm).
(§2) Three different epithelial cancer cell lines were used: colorectal adenocarcinoma [Caco2 (ATCC) and HT29(ECAAC)] and duodenum adenocarcinoma [Hutu 80 (ATCC)]. The cells were grown in an incubator at 37° C. and an atmosphere of 5% CO2 and 95% air at a relative humidity of approximately 95%. The cancer cells were grown in Gibco® MEM supplemented with 5 or 10% foetal bovine serum (FBS) as stated, 1% penicillin/streptomycin (10.000 Units/ml Penicillin, 10.000 μg/ml Streptomycin) and 1% fungizone (Amphotericin B, 250 μg/ml).
(§3) Working solutions of 2 mM [Fe] for each iron compound were prepared fresh on the day of the experiment by diluting the stock solutions of the different iron materials in complete cell growth medium and these 2 mM solutions were used in the serial dilutions to achieve the 8 different concentrations for the proliferation assay (0.89, 0.49, 0.27, 0.15, 0.08, 0.05, 0.026, 0.015) in 96-well ImageLock cell culture plates. A control condition containing only complete growth medium without any iron compound added was also tested. The cells were seeded at a density of 10,000-20,000 cells/well. The plates were incubated in a Live Content Imaging Incubator (Incucyte ZOOM, Essen BioScience Ltd., UK) and images and confluence data were acquired every 3 hours for 72 hours post-seeding. Within each experiment each iron concentration was tested in triplicate wells.
(§4) The plot of confluence (%) vs time (h) was obtained for each iron compound and concentration. The area under the curve (AUC) was calculated and plotted against the concentration for each test compound or the control. The AUC for each iron compound was normalised against that of the control (i.e. complete growth medium alone).

[2] = test system: Hutu 80 human epithelial duodenum adenocarcinoma cell line; experiment: Proliferation assay by real time live cell imaging (Incucyte), Hutu 80; format: cell-based; details: for effect on cancer cell proliferation, ligand not bound to iron: ligand-only control; for effect on cancer cell proliferation, ligand not bound to iron / effect on cell proliferation: 72 h; for effect on cell proliferation: iron compounds, 5 or 10% FBS, at concentrations predicted in gut lumen with iron supplementation
Method: (§5) FIG. 2: Inhibition of cell proliferation in the Hutu 80 human epithelial duodenum adenocarcinoma cell line with different iron compounds as assessed by real time live cell imaging (Incucyte™) Cells were treated for 72 h with the indicated iron compounds in complete growth media containing 5% FBS (A) or 10% FBS (B), the corresponding ‘ligand-only’ controls are shown in panels C and D. Normalised cell proliferation corresponds to the area under the proliferation curve for cells grown in media supplemented with each compound divided by the area under the curve for cells grown in media alone (i.e. without any of the supplemented compounds). Data are presented as mean with SEM (n=2 independent experiments with 3 replicates for each experiment).
as §1, §2, §3, §4

[3] = test system: intestinal cancer; details: animal models; cited from earlier work
[4] = test system: Caco2 human epithelial colorectal adenocarcinoma cell line; experiment: Proliferation assay by real time live cell imaging (Incucyte), Caco2; format: cell-based; details: for effect on cell proliferation: iron compounds, 5 or 10% FBS, at concentrations predicted in gut lumen with iron supplementation
Method: as §5, with “1. […]” for “2: Inhibition of cell proliferation in the Hutu 80 human epithelial duodenum adenocarcinoma cell line with different iron compounds as assessed by real time live cell imaging (Incucyte™)”, “(n=3” for “(n=2”
as §1, §2, §3, §4

[5] = patients with inflammatory bowel disease; cited from earlier work
[6] = review of real time-recorded cell images, concentration as iron

Compound | effect on cancer cell proliferation, ligand not bound to iron [1] | effect on cancer cell proliferation, ligand not bound to iron [2] | effect on cell proliferation [1] | effect on cell proliferation [2] | effect on intestinal cancer [3] | effect on cell proliferation ([4]; 72 h) | further results
O=C(O)CN(CCN(CC(=O)O)CC(=O)O)CC(=O)O [EDTA] | moderate inhibition | moderate inhibition | – | – | – | – | –
O=C([O-])CN(CCN(CC(=O)[O-])CC(=O)[O-])CC(=O)[O-].[Fe+3].[Na+] [ferric EDTA, ferric EDTA sodium salt] | – | – | promoted proliferation | promoted proliferation | enhance intestinal cancer | – | –
Cc1occc(=O)c1[O-].Cc1occc(=O)c1[O-].Cc1occc(=O)c1[O-].[Fe+3] [ferric trimaltol] | – | – | inhibited cancer cell proliferation | inhibited cancer cell proliferation | – | inhibited cancer cell proliferation | iron concentration at which cells were non-proliferative [4, 6]: 80 µM; iron concentration at which cells were poorly proliferating [4, 6]: 50 µM; iron concentration at which cells were non-proliferative [1, 6]: 80 µM; iron concentration at which cells were poorly proliferating [1, 6]: 50 µM; iron concentration at which cells were non-proliferative [2, 6]: 400 µM; iron concentration at which cells were poorly proliferating [2, 6]: 150 µM; correction of iron deficiency anaemia [5]: effectively delivers iron to correct iron deficiency anaemia
O.O.O.O.O.O.O.O=S(=O)([O-])[O-].[Fe+2] [ferrous sulphate, Ferrous sulphate heptahydrate] | – | – | promoted proliferation | promoted proliferation | – | – | –
Cc1occc(=O)c1O [maltol, 3-Hydroxy-2-methyl-4H-pyran-4-one] | moderate inhibition | moderate inhibition | – | – | – | – | effect on cancer cell proliferation, ligand not bound to iron ([4]; ligand-only control, 72 h): moderate inhibition
ferric citrate | – | – | promoted proliferation | promoted proliferation | enhance intestinal cancer | promoted proliferation | –
